Assay results: BindingDB's records for doi:10.1016/j.bmcl.2010.06.021 (Shujitsu University, 2010)

Target: Beta-secretase 1 (Homo sapiens, UniProt P56817)
Test: Inhibition of BACE1 after 60 mins by FRET assay

Sequence of Beta-secretase 1 (P56817 whole entry): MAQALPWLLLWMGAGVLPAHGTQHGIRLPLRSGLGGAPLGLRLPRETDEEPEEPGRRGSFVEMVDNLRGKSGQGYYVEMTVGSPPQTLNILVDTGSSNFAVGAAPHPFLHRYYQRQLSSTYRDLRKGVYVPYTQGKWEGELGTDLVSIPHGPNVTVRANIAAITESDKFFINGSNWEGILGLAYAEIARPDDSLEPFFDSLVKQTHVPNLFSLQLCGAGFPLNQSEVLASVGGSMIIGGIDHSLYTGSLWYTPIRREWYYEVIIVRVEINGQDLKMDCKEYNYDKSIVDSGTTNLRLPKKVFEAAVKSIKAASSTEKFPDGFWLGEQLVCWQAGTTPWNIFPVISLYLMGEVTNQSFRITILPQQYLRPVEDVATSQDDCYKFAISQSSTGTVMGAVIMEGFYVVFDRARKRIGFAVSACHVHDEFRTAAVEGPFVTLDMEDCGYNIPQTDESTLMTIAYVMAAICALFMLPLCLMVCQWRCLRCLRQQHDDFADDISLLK

IC50, > 10 µM:
COc1ccc(-c2cc(=O)c3c(O)cc(OC)c(-c4cc(-c5cc(O)c6c(=O)cc(OC)cc-6o5)ccc4OC)c3o2)cc1 [7,4',7'',4'''-O-methyl-amentoflavone]
COc1ccc(-c2cc(O)c3c(=O)cc(O)cc-3o2)cc1-c1c(OC)cc(O)c2c(=O)cc(-c3ccc(O)cc3)oc12 [4',7''-di-O-methyl-amentoflavone]
COc1ccc(-c2cc(=O)c3c(O)cc(OC)c(-c4cc(-c5cc(O)c6c(=O)cc(OC)cc-6o5)ccc4O)c3o2)cc1 [heveaflavone]
COc1ccc(-c2cc(=O)c3c(O)cc(OC)c(-c4cc(-c5cc(O)c6c(=O)cc(O)cc-6o5)ccc4OC)c3o2)cc1 [kayaflavone]
COc1ccc(-c2cc(=O)c3c(O)cc(OC)c(-c4cc(-c5cc(O)c6c(=O)cc(O)cc-6o5)ccc4O)c3o2)cc1 [7'',4'''-dimethylamentoflavone]
COc1ccc(-c2cc(=O)c3c(O)cc(O)c(-c4cc(-c5cc(O)c6c(=O)cc(OC)cc-6o5)ccc4OC)c3o2)cc1 [sciadopitisin]
O=c1cc(O)cc2oc(-c3ccc(O)c(-c4c(O)cc5oc(-c6ccc(O)cc6)cc(=O)c5c4O)c3)cc(O)c1-2
O=c1cc(O)cc2oc(-c3ccc(Oc4c(O)cc5oc(-c6ccc(O)cc6)cc(=O)c5c4O)cc3)cc(O)c1-2
COc1cc2oc(-c3ccc(OC)c(-c4c(OC)cc(O)c5c(=O)cc(-c6ccc(O)cc6)oc45)c3)cc(O)c-2c(=O)c1 [7-O-methyl-isoginkgetin]
